In brackets after ≈: the same amount, converted by molar mass. Read-outs that look alike come from different tables or passages of the source.
Assays:
Aureobasidium pullulan = experiment: MIC in malt yeast agar, Aureobasidium pullulan; format: cell-based, Aureobasidium pullulan (ATCC 16622); details: read-out: Minimum Inhibitory Concentration (MIC)
Method: (§1) The minimum inhibitory concentration (MIC) for the compounds listed in Table I is determined for bacteria, using nutrient agar, and 7 yeast and fungi, using malt yeast agar. A one percent solution of the test compound is prepared in a mixture of acetone and water.
(§2) Malt yeast agar is prepared by adding 3 g yeast extract and 45 g malt agar per liter of deionized water. The specific agar is dispensed in 30 mL aliquots into 25×200 mm test tubes, capped and autoclaved for 15 minutes at 115° C.
(§3) The test tubes containing the agar are cooled in a water bath until the temperature of the agar is 48° C. Then, an appropriate amount of the one percent solution of the test compound is added (except in the controls where no compound is added) to the respective test tubes so that the final concentrations are 500, 250, 100, 50, 25, 10, 2.5, 1.0 and zero parts per million of the test compound in the agar, thus having a known concentration of test compound dispersed therein. The contents of the test tubes are then transferred to respective petri plates. After drying for 24 hours, the petri plates containing nutrient agar are inoculated with bacteria and those containing malt yeast agar are inoculated with yeast and fungi.
(§4) The inoculation with the yeast and fungi is accomplished as follows. Cultures of yeast and fungi are incubated for seven days on malt yeast agar at 30° C. These cultures are used to prepare suspensions by the following procedure. A suspension of each organism is prepared by adding 10 mL of sterile saline and 10 microliters of octylphenoxy polyethoxy ethanol to the agar slant of yeast or fungi. The sterile saline/octylphenoxy polyethoxy ethanol solution is then agitated with a sterile swab to suspend the microorganism grown on the slant. Each resulting suspension is diluted into sterile saline (1 part suspension: 9 parts sterile saline). Aliquots of these dilutions are placed in individual wells of Steer's Replicator and petri plates inoculated as previously described. The petri plates are incubated at 30° C. and read after 48 hours for yeast and 72 hours for fungi.
(§5) Table II lists the bacteria, yeast and fungi used in the MIC test described above along with their respective American Type Culture Collection (ATCC) identification numbers.
(§6) In Tables III and IV, the MIC values of the compounds described in Table I as compared to the MIC of a standard commercial preservative (with 1-(3-chloroalkyl)-3,5,7-triaza-1-azoniaadamantane chloride as the active agent and referred to in Tables III and IV as "STANDARD I") are set forth for the bacteria organisms and yeast/fungi organisms which are listed in Table II.

Pseudomonas aeruginosa = experiment: MIC in nutrient agar, Pseudomonas aeruginosa (Pa); format: cell-based, Pseudomonas aeruginosa (ATCC 10145)
Method: as §1
(§7) Nutrient agar is prepared at pH 6.8, representing a neutral medium, and at pH 8.2, representing an alkaline medium. The nutrient agars are prepared by adding 23 g of nutrient agar to one-liter of deionized water. In addition, the alkaline medium is prepared by adjusting a 0.04M solution of N-(tris-(hydroxymethyl)methyl)glycine buffered deionized water with concentrated sodium hydroxide to a pH of 8.5.
as §3
(§8) The inoculation with bacteria is accomplished by using the following procedure. Twenty-four hour-cultures of each of the bacteria are prepared by incubating the respective bacteria in tubes containing nutrient broth for 24 hours at 30° C. in a shaker. Dilutions of each of the 24 hour-cultures are made so that nine separate suspensions (one for each of the nine test bacteria) are made, each containing 10^8 colony forming units (CFU) per mL of suspension of a particular bacteria. Aliquots of 0.3 mL of each of the bacterial suspensions are used to fill the individual wells of Steer's Replicator. For each microbial suspension, 0.3 mL was used to fill three wells (i.e., three wells of 0.3 mL each) so that for the nine different bacteria, 27 wells are filled. The Steer's Replicator is then used to inoculate both the neutral and alkaline pH nutrient agar petri plates.
(§9) The inoculated petri plates are incubated at 30° C. for 48 hours and then read to determine if the test compound which is incorporated into the agar prevented growth of the respective bacteria.
as §5, §6

Proteus vulgaris = experiment: MIC in nutrient agar, Proteus vulgaris; format: cell-based, Proteus vulgaris (ATCC 881)
Method: as §1, §7, §3, §8, §9, §5, §6

Salmonella choleraesuis = experiment: MIC in nutrient agar, Salmonella choleraesuis; format: cell-based, Salmonella choleraesuis (ATCC 10708); details: Salmonella enterica
Method: as §1, §7, §3, §8, §9, §5, §6

Escherichia coli = experiment: MIC in nutrient agar, Escherichia coli; format: cell-based, Escherichia coli (ATCC 11229)
Method: as §1, §7, §3, §8, §9, §5, §6

Penicillium chrysogenum = experiment: MIC in malt yeast agar, Penicillium chrysogenum; format: cell-based, Penicillium chrysogenum (ATCC 9480); details: read-out: Minimum Inhibitory Concentration (MIC)
Method: as §1, §2, §3, §4, §5, §6

Fusarium oxysporum = experiment: MIC in malt yeast agar, Fusarium oxysporum; format: cell-based, Fusarium oxysporum (ATCC 48112); details: read-out: Minimum Inhibitory Concentration (MIC)
Method: as §1, §2, §3, §4, §5, §6

Bacillus subtilis = experiment: MIC in nutrient agar, Bacillus subtilis; format: cell-based, Bacillus subtilis (ATCC 8473)
Method: as §1, §7, §3, §8, §9, §5, §6

Saccharomyces cerevisiae = experiment: MIC in malt yeast agar, Saccharomyces cerevisiae; format: cell-based, Saccharomyces cerevisiae (ATCC 4105); details: read-out: Minimum Inhibitory Concentration (MIC)
Method: as §1, §2, §3, §4, §5, §6

[1] = test system: Pseudomonas aeruginosa (PRD-10); experiment: MIC in nutrient agar, Pseudomonas aeruginosa (PRD-10); format: cell-based, Pseudomonas aeruginosa (ATCC 15442)
Method: as §1, §7, §3, §8, §9, §5, §6

Aspergillus niger = experiment: MIC in malt yeast agar, Aspergillus niger; format: cell-based, Aspergillus niger (ATCC 16404); details: read-out: Minimum Inhibitory Concentration (MIC)
Method: as §1, §2, §3, §4, §5, §6

Candida albicans = experiment: MIC in malt yeast agar, Candida albicans; format: cell-based, Candida albicans (ATCC 10231); details: read-out: Minimum Inhibitory Concentration (MIC)
Method: as §1, §2, §3, §4, §5, §6

Klebsiella pneumonias = experiment: MIC in nutrient agar, Klebsiella pneumonias; format: cell-based, Klebsiella pneumonias (ATCC 8308)
Method: as §1, §7, §3, §8, §9, §5, §6

Staphylococcus aureus = experiment: MIC in nutrient agar, Staphylococcus aureus; format: cell-based, Staphylococcus aureus (ATCC 6538)
Method: as §1, §7, §3, §8, §9, §5, §6

Enterobacter aerogenes = experiment: MIC in nutrient agar, Enterobacter aerogenes; format: cell-based, Enterobacter aerogenes (ATCC 13048); details: Klebsiella aerogenes
Method: as §1, §7, §3, §8, §9, §5, §6

Trichoderma viride = experiment: MIC in malt yeast agar, Trichoderma viride; format: cell-based, Trichoderma viride (ATCC 8678); details: read-out: Minimum Inhibitory Concentration (MIC)
Method: as §1, §2, §3, §4, §5, §6

[2] = 48 h, pH 6.8, read-out: Minimum Inhibitory Concentration (MIC)
[3] = 48 h, pH 8.2, read-out: Minimum Inhibitory Concentration (MIC)

What does the source list for `N#CSCOc1nsnc1OCSC#N` [Example 8, 3,4-Bis(thiocyanato-methyloxo)-1,2,5-thiadiazole]?
MIC (Aureobasidium pullulan; Ap, malt yeast agar, 30° C., 72 hours for fungi): < 10 µg/mL; MIC (Pseudomonas aeruginosa; Pa, pH 6.8, 30° C., 48 hours, read-out: Minimum Inhibitory Concentration (MIC)): 250 µg/mL (≈ 960 µM); MIC (Pseudomonas aeruginosa; Pa, pH 8.2, 30° C., 48 hours, read-out: Minimum Inhibitory Concentration (MIC)): 100 µg/mL (≈ 384 µM); MIC (Proteus vulgaris; Pv, pH 6.8, 30° C., 48 hours, read-out: Minimum Inhibitory Concentration (MIC)): 25 µg/mL (≈ 96 µM); MIC (Proteus vulgaris; Pv, pH 8.2, 30° C., 48 hours, read-out: Minimum Inhibitory Concentration (MIC)): 25 µg/mL (≈ 96 µM); MIC (Salmonella choleraesuis; Sc, pH 6.8, 30° C., 48 hours, read-out: Minimum Inhibitory Concentration (MIC)): 25 µg/mL (≈ 96 µM); MIC (Salmonella choleraesuis; Sc, pH 8.2, 30° C., 48 hours, read-out: Minimum Inhibitory Concentration (MIC)): 50 µg/mL (≈ 192 µM); MIC (Escherichia coli; Ec, pH 6.8, 30° C., 48 hours, read-out: Minimum Inhibitory Concentration (MIC)): 50 µg/mL (≈ 192 µM); MIC (Escherichia coli; Ec, pH 8.2, 30° C., 48 hours, read-out: Minimum Inhibitory Concentration (MIC)): 100 µg/mL (≈ 384 µM); MIC (Penicillium chrysogenum; Pc, malt yeast agar, 30° C., 72 hours for fungi): < 10 µg/mL; MIC (Fusarium oxysporum; Fo, malt yeast agar, 30° C., 72 hours for fungi): 25 µg/mL (≈ 96 µM); MIC (Bacillus subtilis; Bs, pH 6.8, 30° C., 48 hours, read-out: Minimum Inhibitory Concentration (MIC)): < 10 µg/mL; MIC (Bacillus subtilis; Bs, pH 8.2, 30° C., 48 hours, read-out: Minimum Inhibitory Concentration (MIC)): 25 µg/mL (≈ 96 µM); MIC (Saccharomyces cerevisiae; Sc, malt yeast agar, 30° C., 48 hours for yeast): 25 µg/mL (≈ 96 µM); MIC ([1]; PRD, pH 6.8, 30° C., 48 hours, read-out: Minimum Inhibitory Concentration (MIC)): 500 µg/mL (≈ 1920 µM); MIC ([1]; PRD, pH 8.2, 30° C., 48 hours, read-out: Minimum Inhibitory Concentration (MIC)): 250 µg/mL (≈ 960 µM); MIC (Aspergillus niger; An, malt yeast agar, 30° C., 72 hours for fungi): < 10 µg/mL; MIC (Candida albicans; Ca, malt yeast agar, 30° C., 48 hours for yeast): 50 µg/mL (≈ 192 µM); MIC (Klebsiella pneumonias; Kp, pH 6.8, 30° C., 48 hours, read-out: Minimum Inhibitory Concentration (MIC)): 100 µg/mL (≈ 384 µM); MIC (Klebsiella pneumonias; Kp, pH 8.2, 30° C., 48 hours, read-out: Minimum Inhibitory Concentration (MIC)): 50 µg/mL (≈ 192 µM); MIC (Staphylococcus aureus; Sa, pH 6.8, 30° C., 48 hours, read-out: Minimum Inhibitory Concentration (MIC)): 25 µg/mL (≈ 96 µM); MIC (Staphylococcus aureus; Sa, pH 8.2, 30° C., 48 hours, read-out: Minimum Inhibitory Concentration (MIC)): 25 µg/mL (≈ 96 µM); MIC (Enterobacter aerogenes; Ea, pH 6.8, 30° C., 48 hours, read-out: Minimum Inhibitory Concentration (MIC)): 250 µg/mL (≈ 960 µM); MIC (Enterobacter aerogenes; Ea, pH 8.2, 30° C., 48 hours, read-out: Minimum Inhibitory Concentration (MIC)): 250 µg/mL (≈ 960 µM); MIC (Trichoderma viride; Tv, malt yeast agar, 30° C., 72 hours for fungi): 50 µg/mL (≈ 192 µM)

For `N#CSc1nsnc1Cl` [Example 1, 4-Chloro-3-thiocyanato-1,2,5-thiadiazole], which MIC (Aureobasidium pullulan; 72 h) is on record?
Its MIC is < 10 µg/mL.

And the MIC (Pseudomonas aeruginosa; [2])?
The MIC was 25 µg/mL (≈ 141 µM).

What about the MIC (Pseudomonas aeruginosa; [3]) of the same compound?
The MIC was > 500 µg/mL.

And the MIC (Proteus vulgaris; [2])?
The MIC was 25 µg/mL (≈ 141 µM).

And the MIC (Proteus vulgaris; [3])?
Its MIC is > 500 µg/mL.

What about the MIC (Salmonella choleraesuis; [2]) of the same compound?
The MIC was 25 µg/mL (≈ 141 µM).

What about the MIC (Salmonella choleraesuis; [3]) of the same compound?
Its MIC is > 500 µg/mL.

What about the MIC (Escherichia coli; [2]) of the same compound?
The MIC was 25 µg/mL (≈ 141 µM).

What about the MIC (Escherichia coli; [3]) of the same compound?
The MIC was > 500 µg/mL.

What about the MIC (Penicillium chrysogenum; 72 h) of the same compound?
The MIC was < 10 µg/mL.

What about the MIC (Fusarium oxysporum; 72 h) of the same compound?
The MIC was < 10 µg/mL.

And the MIC (Bacillus subtilis; [2])?
The MIC was 25 µg/mL (≈ 141 µM).

What about the MIC (Bacillus subtilis; [3]) of the same compound?
Its MIC is 500 µg/mL (≈ 2810 µM).

And the MIC (Saccharomyces cerevisiae; 48 h)?
Its MIC is < 10 µg/mL.

And the MIC [1, 2]?
The MIC was 50 µg/mL (≈ 281 µM).

What about the MIC [1, 3] of the same compound?
The MIC was > 500 µg/mL.

And the MIC (Aspergillus niger; 72 h)?
The MIC was < 10 µg/mL.

And the MIC (Candida albicans; 48 h)?
Its MIC is < 10 µg/mL.

And the MIC (Klebsiella pneumonias; [2])?
The MIC was 25 µg/mL (≈ 141 µM).

What about the MIC (Klebsiella pneumonias; [3]) of the same compound?
The MIC was > 500 µg/mL.

And the MIC (Staphylococcus aureus; [2])?
The MIC was 25 µg/mL (≈ 141 µM).

And the MIC (Staphylococcus aureus; [3])?
Its MIC is > 500 µg/mL.

And the MIC (Enterobacter aerogenes; [2])?
The MIC was 50 µg/mL (≈ 281 µM).

And the MIC (Enterobacter aerogenes; [3])?
The MIC was > 500 µg/mL.

And the MIC (Trichoderma viride; 72 h)?
The MIC was < 10 µg/mL.
